Literature values as cited in patent US20210329918A1, “AQUEOUS COMPOSITIONS OF TOPRAMEZONE” (BASF SE, priority 2018, published 2021).

Details: 25° C.

Cc1c(C(=O)c2cnn(C)c2O)ccc(S(C)(=O)=O)c1C1=NOCC1 [topramezone, 4-[3-(4,5-dihydro-1,2-oxazol-3-yl)-2-methyl-4-methylsulfonylbenzoyl]-2-methyl-1H-pyrazol-3-one]
solubility of topramezone in water: about 0.305 g/L
